In ChEMBL document CHEMBL1132065, “Synthesis and biological activity of oxo-7H-benzo[e]perimidine-4-carboxylic acid derivatives as potent, nonpeptide corticotropin releasing factor (CRF) receptor antagonists” (Bioorg Med Chem Lett, 1999):

Experiments:
[1] = target: T1, Corticotropin-releasing factor receptor 2 (Mus musculus, UniProt Q60748); assay: Antagonistic activity against [125I]-Tyr-ovine CRF binding to Corticotropin releasing factor receptor 2 beta
[2] = target: T2, Corticotropin-releasing factor receptor 1 (Rattus norvegicus, UniProt P35353); assay: Antagonistic activity against [125I]-Tyr-ovine CRF binding to Corticotropin releasing factor receptor 1
T2 sequence (P35353 whole entry): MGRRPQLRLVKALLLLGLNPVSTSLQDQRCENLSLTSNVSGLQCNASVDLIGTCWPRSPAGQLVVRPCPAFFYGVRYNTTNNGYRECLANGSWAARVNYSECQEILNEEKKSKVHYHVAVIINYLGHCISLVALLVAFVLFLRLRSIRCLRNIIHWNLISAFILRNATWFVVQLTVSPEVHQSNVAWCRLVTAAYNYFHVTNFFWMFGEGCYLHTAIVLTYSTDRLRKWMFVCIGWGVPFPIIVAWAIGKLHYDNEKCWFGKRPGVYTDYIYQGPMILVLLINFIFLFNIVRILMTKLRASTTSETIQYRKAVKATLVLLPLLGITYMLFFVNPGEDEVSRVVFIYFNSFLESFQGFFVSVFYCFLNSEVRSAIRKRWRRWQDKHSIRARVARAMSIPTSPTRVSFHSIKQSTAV

[3] = target: T1, Corticotropin-releasing factor receptor 2; assay: Antagonistic activity against [125I]-Tyr-ovine CRF binding to Corticotropin releasing factor receptor 2 beta (30% inhibition at 100 uM)
[4] = target: 5-hydroxytryptamine receptor 6 (Homo sapiens, UniProt P50406); assay: Binding affinity against 5-hydroxytryptamine 6 receptor
Chain of 5-hydroxytryptamine receptor 6 (P50406 whole entry): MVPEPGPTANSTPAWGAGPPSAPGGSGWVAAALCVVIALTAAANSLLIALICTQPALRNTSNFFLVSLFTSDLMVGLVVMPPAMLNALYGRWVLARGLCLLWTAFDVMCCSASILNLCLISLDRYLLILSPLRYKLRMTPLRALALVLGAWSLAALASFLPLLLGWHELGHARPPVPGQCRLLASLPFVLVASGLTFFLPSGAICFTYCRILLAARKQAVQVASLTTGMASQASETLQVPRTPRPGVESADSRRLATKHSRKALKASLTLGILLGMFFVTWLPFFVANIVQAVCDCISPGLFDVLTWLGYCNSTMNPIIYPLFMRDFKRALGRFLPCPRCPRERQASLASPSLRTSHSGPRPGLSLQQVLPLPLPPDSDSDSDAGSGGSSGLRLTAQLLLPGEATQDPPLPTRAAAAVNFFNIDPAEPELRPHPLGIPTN

[5] = target: T3, Neuropeptide Y receptor type 1 (Homo sapiens, UniProt P25929); assay: Binding affinity against Neuropeptide Y receptor type 1 using [125I]PYY
T3 sequence (P25929 whole entry): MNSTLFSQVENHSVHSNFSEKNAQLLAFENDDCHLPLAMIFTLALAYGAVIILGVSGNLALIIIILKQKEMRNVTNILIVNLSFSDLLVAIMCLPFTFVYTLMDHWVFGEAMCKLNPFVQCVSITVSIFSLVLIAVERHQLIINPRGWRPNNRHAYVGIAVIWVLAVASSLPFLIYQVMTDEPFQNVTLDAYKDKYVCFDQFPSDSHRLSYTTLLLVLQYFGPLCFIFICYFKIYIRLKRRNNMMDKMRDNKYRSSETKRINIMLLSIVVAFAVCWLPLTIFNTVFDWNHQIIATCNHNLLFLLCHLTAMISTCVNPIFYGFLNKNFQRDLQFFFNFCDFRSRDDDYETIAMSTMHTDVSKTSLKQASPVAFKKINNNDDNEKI

[6] = Binding affinity against Glucagon receptor using [125I]glucagon
D(2) dopamine receptor = D(2) dopamine receptor (Homo sapiens, UniProt P14416); assay: Binding affinity against dopamine D2 receptor
Chain of D(2) dopamine receptor (P14416 whole entry): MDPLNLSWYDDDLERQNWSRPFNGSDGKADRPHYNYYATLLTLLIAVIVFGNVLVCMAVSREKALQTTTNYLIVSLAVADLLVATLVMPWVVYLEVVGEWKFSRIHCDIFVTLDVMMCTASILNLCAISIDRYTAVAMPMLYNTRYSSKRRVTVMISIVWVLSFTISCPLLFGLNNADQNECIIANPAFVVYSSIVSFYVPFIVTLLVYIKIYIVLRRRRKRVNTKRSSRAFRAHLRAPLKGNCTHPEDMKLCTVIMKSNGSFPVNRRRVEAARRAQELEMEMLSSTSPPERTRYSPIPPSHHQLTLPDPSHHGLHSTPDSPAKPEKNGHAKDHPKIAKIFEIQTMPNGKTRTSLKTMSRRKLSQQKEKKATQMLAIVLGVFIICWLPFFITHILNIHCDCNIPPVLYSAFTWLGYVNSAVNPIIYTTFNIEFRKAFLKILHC

[7] = Binding affinity to Glp1 receptor using [125I]Glp-1 as radioligand
[8] = Binding affinity against Galanin receptor; design: species or system Homo sapiens
[9] = target: 5-hydroxytryptamine receptor 7 (Homo sapiens, UniProt P34969); assay: Binding affinity against 5-hydroxytryptamine 7 receptor
Chain of 5-hydroxytryptamine receptor 7 (P34969 whole entry): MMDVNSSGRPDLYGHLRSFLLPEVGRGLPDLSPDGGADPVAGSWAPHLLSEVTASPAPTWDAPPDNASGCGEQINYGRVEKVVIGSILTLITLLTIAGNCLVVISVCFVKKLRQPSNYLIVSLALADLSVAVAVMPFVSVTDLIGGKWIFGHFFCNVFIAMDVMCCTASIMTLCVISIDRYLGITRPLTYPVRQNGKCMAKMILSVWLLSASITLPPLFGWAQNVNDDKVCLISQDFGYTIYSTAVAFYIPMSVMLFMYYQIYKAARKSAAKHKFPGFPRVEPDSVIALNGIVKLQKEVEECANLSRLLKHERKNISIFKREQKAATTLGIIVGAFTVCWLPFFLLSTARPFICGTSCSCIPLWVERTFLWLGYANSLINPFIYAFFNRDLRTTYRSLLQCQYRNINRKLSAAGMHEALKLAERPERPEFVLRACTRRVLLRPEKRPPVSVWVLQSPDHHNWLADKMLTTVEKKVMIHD

T1 sequence (Q60748 whole entry): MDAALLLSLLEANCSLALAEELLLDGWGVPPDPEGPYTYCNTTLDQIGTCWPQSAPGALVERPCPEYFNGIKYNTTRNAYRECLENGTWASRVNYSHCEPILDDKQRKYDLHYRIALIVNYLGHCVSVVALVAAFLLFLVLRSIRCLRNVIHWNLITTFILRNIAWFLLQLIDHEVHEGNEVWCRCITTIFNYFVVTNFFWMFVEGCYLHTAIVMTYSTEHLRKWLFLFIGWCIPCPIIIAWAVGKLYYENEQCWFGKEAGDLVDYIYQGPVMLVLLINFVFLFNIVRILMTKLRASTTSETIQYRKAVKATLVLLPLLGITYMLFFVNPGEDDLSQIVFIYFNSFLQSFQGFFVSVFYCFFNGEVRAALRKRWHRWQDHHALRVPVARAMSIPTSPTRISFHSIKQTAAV

| Ki [1] | Ki [2] | Structure (SMILES) | further results |
| --- | --- | --- | --- |
| > 10 µM | > 10 µM | NCCNC(=O)c1ccc2c3c(ncnc13)-c1ccccc1C2=O |  |
| 0.65 µM | 2.05 µM | NCCNC(=O)c1c2c(c3c(O)c4ccccc4c4ncnc1c34)=NCCN2 |  |
| 0.83 µM | 0.27 µM | NCCNC(=O)c1c2c(c3c(O)c4ccccc4c4ncnc1c34)=N[C@H]1CCCC[C@H]1N2 |  |
|  |  | O=C(O)c1ccc2c3c(ncnc13)-c1ccccc1C2=O | Ki [3]: > 100 µM |
| 0.086 µM | 0.18 µM | N[C@@H]1CCCC[C@H]1NC(=O)c1c2c(c3c(O)c4ccccc4c4ncnc1c34)=N[C@H]1CCCC[C@@H]1N2 |  |
| 0.075 µM | 0.2 µM | NCCNC(=O)c1c2c(c3c4c(ncnc14)-c1ccccc1C3=O)N[C@H]1CCCC[C@@H]1N2 |  |
| 0.02 µM | 0.11 µM | N[C@H]1CCCC[C@@H]1NC(=O)c1c2c(c3c4c(ncnc14)-c1ccccc1C3=O)N[C@@H]1CCCC[C@H]1N2 | Ki [4]: > 10 µM; Ki [5]: 4.2 µM; Ki [6]: > 10 µM; Ki (D(2) dopamine receptor): 3.2 µM; Ki [7]: > 10 µM; Ki [8]: > 10 µM; Ki [9]: 1.6 µM |
| > 10 µM |  | CN(C)C(=O)c1ccc2c3c(ncnc13)-c1ccccc1C2=O |  |
| > 10 µM | > 10 µM | N[C@H]1CCCC[C@H]1NC(=O)c1ccc2c3c(ncnc13)-c1ccccc1C2=O |  |
| > 10 µM | > 10 µM | N[C@@H]1CCCC[C@H]1NC(=O)c1ccc2c3c(ncnc13)-c1ccccc1C2=O |  |
| 0.045 µM | 0.16 µM | NCCNC(=O)c1c2c(c3c(O)c4ccccc4c4ncnc1c34)=N[C@@H]1CCCC[C@H]1N2 |  |
